Numbering of substitutions follows the chain as printed. Where two headings read alike, the source gives them in different places. No end group written: not given here.

One may read the Emax as the maximal effect, on the per cent scale that the assay sets.

Common to all, as to format: cell-based
Holding throughout (design): WT (1–553); expressed in transfected cells; HEK 293T (cAMP)

In one assay the target is T1, GLP-2R W249^ECL1A (Homo sapiens, UniProt O95838, W249A).
T1 sequence (O95838 1-553 W249A): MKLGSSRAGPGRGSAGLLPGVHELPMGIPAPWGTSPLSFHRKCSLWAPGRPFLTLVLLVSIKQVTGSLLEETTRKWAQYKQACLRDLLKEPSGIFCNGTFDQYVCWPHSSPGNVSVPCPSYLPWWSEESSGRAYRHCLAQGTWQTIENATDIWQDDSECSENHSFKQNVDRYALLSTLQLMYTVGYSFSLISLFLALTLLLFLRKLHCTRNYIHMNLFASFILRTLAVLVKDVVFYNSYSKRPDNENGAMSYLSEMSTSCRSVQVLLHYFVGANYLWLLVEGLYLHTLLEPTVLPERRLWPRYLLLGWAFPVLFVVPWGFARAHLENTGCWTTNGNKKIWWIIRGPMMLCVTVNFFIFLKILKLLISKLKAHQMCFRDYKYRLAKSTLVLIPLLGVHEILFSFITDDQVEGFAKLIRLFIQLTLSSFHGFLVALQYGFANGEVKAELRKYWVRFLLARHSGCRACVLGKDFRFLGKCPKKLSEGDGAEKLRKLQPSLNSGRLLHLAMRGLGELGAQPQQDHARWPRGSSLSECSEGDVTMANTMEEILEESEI
The experiment in a line: cAMP accumulation, W249^ECL1A. Particulars: HEK 293T, 30 min, RT, mean ± SEM, n ≥ 3 in duplicate; for EC50: read-out: cAMP pEC50 (converted); for Emax: HEK-293T, read-out: cAMP Emax (% WT). Here is the method:
(§1) They were seeded onto 6-well cell culture plates and transiently transfected with different GLP-2R constructs using Lipofectamine 2000 transfection reagent (Invitrogen, Carlsbad, CA, USA). After 24 h, the transfected cells were seeded onto 384-well microtiter plates (3000 cells per well) in HBSS supplemented with 5 mM HEPES, 0.1% (w/v) bovine serum albumin (BSA) and 0.5 mM 3-isobutyl-1- methylxanthine, and stimulated with increasing concentrations of GLP-2 for 30 min at RT. Eu and Ulight were diluted by cAMP detection buffer and added to the plates separately to terminate the reaction. Plates were incubated at RT for 60 min before measuring the fluorescence intensity at 620 nm and […] by an EnVision multilabel plate reader (PerkinElmer, Boston, USA).

Another assay deals with T2, GLP-2R R242^ECL1E (Homo sapiens, UniProt O95838, R242E).
T2 sequence (O95838 1-553 R242E): T1 sequence (O95838 1-553 W249A) with R242E, A249W
The experiment in a line: cAMP accumulation, R242^ECL1E. The note with it: HEK 293T, 30 min, RT, mean ± SEM, n ≥ 3 in duplicate; for Emax: HEK-293T, read-out: cAMP Emax (% WT); for EC50: read-out: cAMP pEC50 (converted). Here is the method:
as §1
A general note: Cyclic AMP is a second messenger, typically raised through Gs and lowered through Gi signalling.

In the next assay the target is T3, GLP-2R R242^ECL1A (Homo sapiens, UniProt O95838, R242A).
T3 sequence (O95838 1-553 R242A): T1 sequence (O95838 1-553 W249A) with R242A, A249W
The experiment in a line: cAMP accumulation, R242^ECL1A. The note with it: 30 min, RT, mean ± SEM, n ≥ 3 in duplicate; for Emax: HEK-293T, read-out: cAMP Emax (% WT); for EC50: HEK 293T, read-out: cAMP pEC50 (converted). The method, then: as §1, with “HEK 293T cells were cultured in Dulbecco’s Modified Eagle’s Medium (DMEM) (Gibco, Waltham, USA) supplemented with 10% (v/v) fetal bovine serum (FBS) (Gibco) and 1% (v/v) sodium pyruvate (Gibco) at 37 °C, 5% CO2 in a humidified incubator. They” for “They”

As to “HAEGTFSDEMNTILDNLAARDFINWLIQTKITD [Chimeric GLP-1/GLP-2 (1-6)]”, the EC50 at GLP-2R W249^ECL1A (Table S5, W249A) was 1260 nM; on GLP-2R R242^ECL1E (Table S5, R242E), 25.1 nM; on GLP-2R R242^ECL1A (Table S5, R242A), 7.94 nM. Further, the Emax on GLP-2R R242^ECL1E (Table S5, R242E) was found to be 108 ± 3.2%; on GLP-2R R242^ECL1A (Table S5, R242A) it was 105 ± 3.2%.

Consider `CC[C@H](C)[C@H](NC(=O)[C@H](Cc1ccccc1)NC(=O)[C@H](CC(=O)O)NC(=O)[C@H](CCCNC(=N)N)NC(=O)[C@H](C)NC(=O)[C@H](C)NC(=O)[C@H](CC(C)C)NC(=O)[C@H](CC(N)=O)NC(=O)[C@H](CC(=O)O)NC(=O)[C@H](CC(C)C)NC(=O)[C@@H](NC(=O)[C@@H](NC(=O)[C@H](CC(N)=O)NC(=O)[C@H](CCSC)NC(=O)[C@H](CCC(=O)O)NC(=O)[C@H](CC(=O)O)NC(=O)[C@H](CO)NC(=O)[C@H](Cc1ccccc1)NC(=O)[C@H](CO)NC(=O)CNC(=O)[C@H](CC(=O)O)NC(=O)[C@H](C)NC(=O)[C@@H](N)Cc1c[nH]cn1)[C@@H](C)O)[C@@H](C)CC)C(=O)N[C@@H](CC(N)=O)C(=O)N[C@@H](Cc1c[nH]c2ccccc12)C(=O)N[C@@H](CC(C)C)C(=O)N[C@H](C(=O)N[C@@H](CCC(N)=O)C(=O)N[C@H](C(=O)N[C@@H](CCCCN)C(=O)N[C@H](C(=O)N[C@H](C(=O)N[C@@H](CC(=O)O)C(=O)O)[C@@H](C)O)[C@@H](C)CC)[C@@H](C)O)[C@@H](C)CC` [Human GLP-2 (1–33)], for which the Emax on GLP-2R W249^ECL1A (Table S3, W249A) was determined as 128 ± 162%; on GLP-2R W249^ECL1A (Table S5, W249A) it was 113 ± 4.1%; at GLP-2R R242^ECL1E (Table S3, R242E), 108 ± 1.9%; on GLP-2R R242^ECL1E (Table S5, R242E), 103 ± 2.3%; at GLP-2R R242^ECL1A (Table S3, R242A), 107 ± 3.4%; at GLP-2R R242^ECL1A (Table S5, R242A) it was 104 ± 2.3%.

Regarding “HADGSFSDEMNTILDNLAAKEFIAWLVKGRG [Chimeric GLP-1/GLP-2 (20-33)]”, the EC50 on GLP-2R W249^ECL1A (Table S5, W249A) was 6310 nM; on GLP-2R R242^ECL1E (Table S5, R242E) it was 5.01 nM; on GLP-2R R242^ECL1A (Table S5, R242A) it was 1.26 nM. Also, the Emax was 103 ± 3.5% on GLP-2R R242^ECL1E (Table S5, R242E) and 102 ± 3.1% at GLP-2R R242^ECL1A (Table S5, R242A).

For the compound “HADGSFTSDVSSYLEGQAARDFINWLIQTKITD [Chimeric GLP-1/GLP-2 (7-19)]”, at GLP-2R R242^ECL1E (Table S5, R242E), the Emax turned out to be 108 ± 5.5% and the EC50 is 39.8 nM. Moreover, at GLP-2R R242^ECL1A (Table S5, R242A), the Emax was 106 ± 4.9% and the EC50 is 25.1 nM.

For the origin of these results see publication PMC7785020, “A unique hormonal recognition feature of the human glucagon-like peptide-2 receptor” (Cell Research, 2020).
